Test results as given in US4826854A, “Certain cycloalka-(b)-pyrazolo(3,4-d)-pyridin-3-one derivatives” (Ciba-Geigy Corporation, priority 1987, dated 1989).

How the values were obtained:
rat = test: discrimination test in the rat; format: in vivo; details: test compounds administered orally
Source text: Illustrative thereof is the compound of example 1.
The diazepam discrimination test, can also be used to determine benzodiazepine antagonist properties.

benzodiazepine receptor = benzodiazepine receptor binding and agonist/antagonist profile (3H-flunitrazepam displacement, rat brain membranes)
Procedure: The benzodiazepine receptor binding properties indicative of the nervous system regulatory activity of said new compounds are determined in the receptor binding assay in vitro, e.g. similarly to that in Nature 266, 732 (1977) or Proc. Nat. Acad. Sci. USA 74, 3805 (1977). When tritiated flunitrazepam is used, the interaction of other drugs with said receptor can be readily assessed thus: Synaptosnal membranes from rat fore-brain are incubated at 0°-5° for 30 minutes with 0.5 nM tritiated flunitrazepam and various concentrations of the test substance in a buffer medium maintained at pH 7.5. […] The membranes, containing the receptors with various amounts of tritiated flunitrazepam, are filtered onto glass fiber filters, which are then analyzed in a liquid scintillation counter. […]
The pharmacological agonist and/or antagonist/inverse agonist profile of the benzodiazepine receptor modulators of the invention can also be determined by measuring their effect in a rat brain membrane preparation on the displacement of ^3 H-flunitrazepam in the presence or absence of gamma-aminobutric acid (GABA), on the enhancement of ^3 H-muscimol binding by etazolate, or on the binding of ^35 S-butyl bicyclophosphorothionate (TBPS), e.g. as described in J. Pharmacol. Exp. Ther. 231, 572 (1984).

male Wistar rats = test: Cook-Davidson conflict procedure (anxiolytic effects); format: in vivo, rat; details: e.g. as determined in the Cook-Davidson model
Source text: Anxiolytic effects are observed, for example, by measuring the antagonism of pentylenetetrazol discriminative stimuli in the rat and according to the Cook-Davidson conflict procedure, using male Wistar rats, e.g. as described in Drug Development Research 6: 313-325 (1985).

| pharmacological profile at the benzodiazepine receptor (benzodiazepine receptor) | Compound | generalization to the discrimination test (rat) | anxiolytic properties (male Wistar rats) |
| --- | --- | --- | --- |
| benzodiazepine agonist profile | COc1ccc(-n2nc3c4c([nH]cc-3c2=O)CCCCCC4)cc1 [Example 1, 2-(4-methoxyphenyl)-2,3,6,7,8,9,10,11-octahydrocycloocta[b]pyrazolo[3,4-d]pyridin-3(5H)-one] | do not generalize to the discrimination test | demonstrate anxiolytic properties |
| benzodiazepine agonist profile | O=c1c2c[nH]c3c(c-2nn1-c1ccc(Cl)cc1)CCCCCC3 [Example 2b, 2-(4-chlorophenyl)-2,3,6,7,8,9,10,11-octahydrocycloocta[b]pyrazolo[3,4-d]-pyridin-3(5H)-one] | – | – |
